Results: patent publication US7501423B2, “Tubulin inhibitor and process for its preparation” (Wyeth, priority 2005, dated 2009)
Structures can show the parent of a compound that is named as a salt.

Assay: hygroscopic character of the salt forms
Type: physicochemical
Details: solid salt form; no method or figures given

Molecule	hygroscopicity (hygroscopic character of the salt)
6-chloro-5-{2,6-difluoro-4-[3-(methylamino)propoxy]phenyl}-2-pyrazin-2-yl-N-[(1S)-2,2,2-trifluoro-1-methylethyl]pyrimidin-4-amine hemifumarate	essentially avoids the disadvantage of the hygroscopic character
CNCCCOc1cc(F)c(-c2c(Cl)nc(-c3cnccn3)nc2N[C@@H](C)C(F)(F)F)c(F)c1 [hydrochloride, 6-chloro-5-{2,6-difluoro-4-[3-(methylamino)propoxy]phenyl}-2-pyrazin-2-yl-N-[(1S)-2,2,2-trifluoro-1-methylethyl]pyrimidin-4-amine]	very hygroscopic
